Test results: US20260356819A1, “OXOISOINDOLINYL-SUBSTITUTED […] DERIVATIVE AND USE THEREOF” (GLUETACS THERAPEUTICS (SHANGHAI) CO., LTD., priority 2023, published 2026)

Key:
Type in all cases: cell-based
Settings in all cases: compounds at 50 nM and 500 nM
WEE1 = biological target: T1, WEE1 (Homo sapiens, UniProt P30291+Q96SW2); experiment: Western blot degradation of WEE1 in hPBMCs (24 h)
T1 construct: The supernatant was aspirated as the extracted total cell protein; endogenous in cells; host or cells: human peripheral blood mononuclear cells (hPBMCs)
Procedure, shortened: (§1)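 Thawed human PBMCs, 1×10^6 cells/mL; cpd 50 nM or 500 nM, 24 h; RIPA lysis, BCA, SDS-PAGE, NC transfer, immunoblot. Readout: grayscale/internal control → % remaining; degradation = 1 − remaining.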

IKZF1 = biological target: T2, IKZF1 (Homo sapiens, UniProt Q13422+Q96SW2); experiment: Western blot degradation of IKZF1 in hPBMCs (24 h)
T2 construct: The supernatant was aspirated as the extracted total cell protein; endogenous in cells; host or cells: human peripheral blood mononuclear cells (hPBMCs)
T2 sequence (Q13422 whole entry): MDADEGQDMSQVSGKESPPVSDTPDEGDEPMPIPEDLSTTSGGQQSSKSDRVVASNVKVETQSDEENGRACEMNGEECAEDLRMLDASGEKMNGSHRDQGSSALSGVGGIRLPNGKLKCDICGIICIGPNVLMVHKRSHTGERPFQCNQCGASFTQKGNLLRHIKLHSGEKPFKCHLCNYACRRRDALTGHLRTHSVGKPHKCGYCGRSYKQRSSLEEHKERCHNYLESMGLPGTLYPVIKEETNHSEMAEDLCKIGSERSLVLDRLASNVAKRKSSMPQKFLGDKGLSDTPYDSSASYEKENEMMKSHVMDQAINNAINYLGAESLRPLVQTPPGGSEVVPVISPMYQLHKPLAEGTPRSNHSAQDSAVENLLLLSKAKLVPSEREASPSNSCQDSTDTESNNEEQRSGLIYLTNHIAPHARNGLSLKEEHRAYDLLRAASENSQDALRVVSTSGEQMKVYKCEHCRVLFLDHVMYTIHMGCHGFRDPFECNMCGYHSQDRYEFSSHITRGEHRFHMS
T2 sequence (Q96SW2 whole entry): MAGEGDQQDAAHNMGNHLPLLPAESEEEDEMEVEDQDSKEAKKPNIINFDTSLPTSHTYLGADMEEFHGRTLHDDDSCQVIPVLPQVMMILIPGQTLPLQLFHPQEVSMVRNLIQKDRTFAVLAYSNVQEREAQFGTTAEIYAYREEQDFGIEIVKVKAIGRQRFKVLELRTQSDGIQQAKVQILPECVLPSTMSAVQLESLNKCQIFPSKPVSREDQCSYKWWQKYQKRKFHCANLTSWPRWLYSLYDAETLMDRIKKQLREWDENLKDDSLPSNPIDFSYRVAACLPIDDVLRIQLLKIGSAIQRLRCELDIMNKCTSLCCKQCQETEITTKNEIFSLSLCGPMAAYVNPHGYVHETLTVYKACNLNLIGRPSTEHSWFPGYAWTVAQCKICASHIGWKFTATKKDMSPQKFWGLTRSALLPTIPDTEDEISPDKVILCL
T2 sequence (Q16531 whole entry partner): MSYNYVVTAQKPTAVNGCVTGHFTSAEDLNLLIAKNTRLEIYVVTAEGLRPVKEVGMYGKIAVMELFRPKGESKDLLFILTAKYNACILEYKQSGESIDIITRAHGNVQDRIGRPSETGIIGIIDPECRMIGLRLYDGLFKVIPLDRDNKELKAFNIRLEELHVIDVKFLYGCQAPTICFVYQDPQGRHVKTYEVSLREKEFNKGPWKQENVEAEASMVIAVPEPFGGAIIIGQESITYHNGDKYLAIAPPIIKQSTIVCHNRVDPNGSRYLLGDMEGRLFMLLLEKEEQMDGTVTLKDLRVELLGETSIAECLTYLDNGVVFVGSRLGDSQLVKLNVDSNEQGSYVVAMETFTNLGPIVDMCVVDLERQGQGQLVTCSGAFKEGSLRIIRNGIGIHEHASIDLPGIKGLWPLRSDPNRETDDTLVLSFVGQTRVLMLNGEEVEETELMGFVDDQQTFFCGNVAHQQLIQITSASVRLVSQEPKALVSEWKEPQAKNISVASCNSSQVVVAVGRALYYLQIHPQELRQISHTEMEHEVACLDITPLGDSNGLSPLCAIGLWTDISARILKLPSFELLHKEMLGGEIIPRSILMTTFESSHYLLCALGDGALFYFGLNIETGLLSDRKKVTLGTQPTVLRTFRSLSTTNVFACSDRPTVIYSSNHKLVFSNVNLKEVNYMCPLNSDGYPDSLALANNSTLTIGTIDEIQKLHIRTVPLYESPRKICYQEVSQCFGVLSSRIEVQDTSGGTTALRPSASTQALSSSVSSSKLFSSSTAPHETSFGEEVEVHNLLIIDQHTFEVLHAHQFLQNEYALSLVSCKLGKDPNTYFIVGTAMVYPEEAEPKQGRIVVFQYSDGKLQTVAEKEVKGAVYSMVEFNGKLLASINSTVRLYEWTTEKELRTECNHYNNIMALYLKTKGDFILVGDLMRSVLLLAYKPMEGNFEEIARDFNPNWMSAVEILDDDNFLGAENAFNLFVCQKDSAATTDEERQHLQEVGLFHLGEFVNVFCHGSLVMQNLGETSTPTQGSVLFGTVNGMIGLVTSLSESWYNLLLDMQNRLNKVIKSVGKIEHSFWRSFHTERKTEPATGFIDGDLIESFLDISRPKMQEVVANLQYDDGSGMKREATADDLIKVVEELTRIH
Procedure, shortened: as §1

IKZF2 = biological target: T3, IKZF2 (Homo sapiens, UniProt Q96SW2+Q9UKS7); experiment: Western blot degradation of IKZF2 in hPBMCs (24 h)
T3 construct: The supernatant was aspirated as the extracted total cell protein; endogenous in cells; host or cells: human peripheral blood mononuclear cells (hPBMCs)
T3 sequence (Q9UKS7 whole entry): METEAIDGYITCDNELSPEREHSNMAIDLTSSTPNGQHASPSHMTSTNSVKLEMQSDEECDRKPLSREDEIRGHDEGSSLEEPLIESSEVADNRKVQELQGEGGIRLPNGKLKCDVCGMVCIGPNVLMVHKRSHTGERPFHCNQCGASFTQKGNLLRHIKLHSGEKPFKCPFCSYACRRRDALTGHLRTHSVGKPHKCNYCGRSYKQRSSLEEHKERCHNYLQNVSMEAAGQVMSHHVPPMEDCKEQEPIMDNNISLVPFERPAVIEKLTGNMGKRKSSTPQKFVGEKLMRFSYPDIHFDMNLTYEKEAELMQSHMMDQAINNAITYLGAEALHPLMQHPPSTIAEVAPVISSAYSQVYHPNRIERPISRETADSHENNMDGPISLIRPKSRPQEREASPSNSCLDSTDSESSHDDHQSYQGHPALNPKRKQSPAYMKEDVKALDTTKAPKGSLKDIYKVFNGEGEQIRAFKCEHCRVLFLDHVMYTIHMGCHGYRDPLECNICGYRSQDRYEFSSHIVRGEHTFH
T3 sequence (Q96SW2 whole entry): as the sequence (Q96SW2 whole entry) above
T3 sequence (Q16531 whole entry partner): as the sequence (Q16531 whole entry partner) above
Procedure, shortened: as §1

IKZF3 = biological target: T4, IKZF3 (Homo sapiens, UniProt Q96SW2+Q9UKT9); experiment: Western blot degradation of IKZF3 in hPBMCs (24 h)
T4 construct: The supernatant was aspirated as the extracted total cell protein; endogenous in cells; host or cells: human peripheral blood mononuclear cells (hPBMCs)
T4 sequence (Q9UKT9 whole entry): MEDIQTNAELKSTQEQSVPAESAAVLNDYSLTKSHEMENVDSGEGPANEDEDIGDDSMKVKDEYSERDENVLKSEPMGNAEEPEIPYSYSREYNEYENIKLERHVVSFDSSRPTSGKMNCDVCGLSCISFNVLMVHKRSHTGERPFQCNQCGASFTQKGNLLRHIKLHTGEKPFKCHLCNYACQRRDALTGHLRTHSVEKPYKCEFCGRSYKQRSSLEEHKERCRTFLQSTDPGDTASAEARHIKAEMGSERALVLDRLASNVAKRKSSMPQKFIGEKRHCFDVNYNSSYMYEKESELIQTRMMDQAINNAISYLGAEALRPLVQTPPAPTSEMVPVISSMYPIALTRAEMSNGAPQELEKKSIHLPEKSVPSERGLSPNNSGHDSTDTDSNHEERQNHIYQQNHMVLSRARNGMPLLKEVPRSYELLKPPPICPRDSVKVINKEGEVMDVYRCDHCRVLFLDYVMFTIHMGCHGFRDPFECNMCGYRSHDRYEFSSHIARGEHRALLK
T4 sequence (Q96SW2 whole entry): as the sequence (Q96SW2 whole entry) above
T4 sequence (Q16531 whole entry partner): as the sequence (Q16531 whole entry partner) above
Procedure, shortened: as §1

CK1α = biological target: T5, CK1α (Homo sapiens, UniProt P48729+Q96SW2); experiment: Western blot degradation of CK1α in hPBMCs (24 h)
T5 construct: The supernatant was aspirated as the extracted total cell protein; endogenous in cells; host or cells: human peripheral blood mononuclear cells (hPBMCs)
T5 sequence (P48729 whole entry): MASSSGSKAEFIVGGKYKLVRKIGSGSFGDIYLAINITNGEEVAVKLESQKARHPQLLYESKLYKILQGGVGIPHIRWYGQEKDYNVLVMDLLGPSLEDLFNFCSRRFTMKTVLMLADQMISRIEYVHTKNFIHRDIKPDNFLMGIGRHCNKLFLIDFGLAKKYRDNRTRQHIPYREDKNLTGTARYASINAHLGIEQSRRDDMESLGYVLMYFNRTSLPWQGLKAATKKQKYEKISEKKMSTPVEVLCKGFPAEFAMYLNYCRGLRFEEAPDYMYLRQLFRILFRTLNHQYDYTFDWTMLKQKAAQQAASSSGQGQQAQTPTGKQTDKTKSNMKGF
T5 sequence (Q96SW2 whole entry): as the sequence (Q96SW2 whole entry) above
T5 sequence (Q16531 whole entry partner): as the sequence (Q16531 whole entry partner) above
Procedure, shortened: as §1

GSPT1 = biological target: T6, GSPT1 (Homo sapiens, UniProt P15170+Q96SW2); experiment: Western blot degradation of GSPT1 in hPBMCs (24 h)
T6 construct: The supernatant was aspirated as the extracted total cell protein; endogenous in cells; host or cells: human peripheral blood mononuclear cells (hPBMCs)
T6 sequence (P15170 whole entry): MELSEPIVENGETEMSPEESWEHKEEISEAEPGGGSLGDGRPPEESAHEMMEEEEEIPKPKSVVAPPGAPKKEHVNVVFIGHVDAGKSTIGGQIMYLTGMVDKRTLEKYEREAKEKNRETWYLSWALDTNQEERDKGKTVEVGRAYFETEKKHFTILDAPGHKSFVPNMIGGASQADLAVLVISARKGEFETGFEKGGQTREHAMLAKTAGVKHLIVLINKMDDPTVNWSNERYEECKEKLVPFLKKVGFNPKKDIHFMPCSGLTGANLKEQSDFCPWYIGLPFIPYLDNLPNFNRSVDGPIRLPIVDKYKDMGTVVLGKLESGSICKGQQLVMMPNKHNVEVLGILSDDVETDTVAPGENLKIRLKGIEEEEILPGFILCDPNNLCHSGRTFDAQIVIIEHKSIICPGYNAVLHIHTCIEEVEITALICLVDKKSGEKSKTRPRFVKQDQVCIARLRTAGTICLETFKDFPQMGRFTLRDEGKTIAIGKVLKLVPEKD
T6 sequence (Q96SW2 whole entry): as the sequence (Q96SW2 whole entry) above
T6 sequence (Q16531 whole entry partner): as the sequence (Q16531 whole entry partner) above
Procedure, shortened: as §1

Structure (SMILES)	WEE1 substrate protein remaining % (WEE1)	IKZF1 substrate protein remaining % (IKZF1)	IKZF2 substrate protein remaining % (IKZF2)	IKZF3 substrate protein remaining % (IKZF3)	CK1α substrate protein remaining % (CK1α)	GSPT1 substrate protein remaining % (GSPT1)
O=C1CCN(N2C(=O)c3ccc(CN4CCN(Cc5ccc(C67CC8CC(CC(C8)C6)C7)cc5)CC4)cc3C2=O)C(=O)N1 [GT-07722, 5-((4-(4-((3r,5r,7r)-adamantan-1-yl)benzyl)piperazin-1-yl)methyl)-2-(2,4-dioxotetrahydropyrimidin-1(2H)-yl)isoindoline-1,3-dione]	A (0% ≤ substrate protein remaining % ≤80%)	B (80%< substrate protein remaining % ≤100%)	A (0% ≤ substrate protein remaining % ≤80%)	A (0% ≤ substrate protein remaining % ≤80%)	A (0% ≤ substrate protein remaining % ≤80%)	A (0% ≤ substrate protein remaining % ≤80%)
O=C1CCN(N2C(=O)c3ccc(CN4CCC(c5cccc(C(F)(F)F)c5)CC4)cc3C2=O)C(=O)N1 [GT-06880, 2-(2,4-dioxotetrahydropyrimidin-1(2H)-yl)-5-((4-(3-(trifluoromethyl)phenyl)piperidin-1-yl)methyl)isoindoline-1,3-dione]	A (0% ≤ substrate protein remaining % ≤80%)	B (80%< substrate protein remaining % ≤100%)	B (80%< substrate protein remaining % ≤100%)	B (80%< substrate protein remaining % ≤100%)	B (80%< substrate protein remaining % ≤100%)	B (80%< substrate protein remaining % ≤100%)
CC1(C)CCC(CN2CCN(Cc3ccc4c(c3)CN(N3CCC(=O)NC3=O)C4=O)C(C(F)(F)F)C2)=C(c2ccc(Cl)cc2)C1 (stereo not drawn) [GT-07296, 1-(5-((4-((4′-chloro-5,5-dimethyl-3,4,5,6-tetrahydro-[1,1′-biphenyl]-2-yl)methyl)-2-(trifluoromethyl)piperazin-1-yl)methyl)-1-oxoisoindolin-2-yl)dihydropyrimidine-2,4(1H,3H)-dione]	A (0% ≤ substrate protein remaining % ≤80%)	A (0% ≤ substrate protein remaining % ≤80%)	B (80%< substrate protein remaining % ≤100%)	B (80%< substrate protein remaining % ≤100%)	A (0% ≤ substrate protein remaining % ≤80%)	A (0% ≤ substrate protein remaining % ≤80%)
O=C1CCN(N2C(=O)c3ccc(CN4CCN(c5cccnc5)CC4)cc3C2=O)C(=O)N1 [GT-06971, 2-(2,4-dioxotetrahydropyrimidin-1(2H)-yl)-5-((4-(pyridin-3-yl)piperazin-1-yl)methyl)isoindoline-1,3-dione]	A (0% ≤ substrate protein remaining % ≤80%)	B (80%< substrate protein remaining % ≤100%)	A (0% ≤ substrate protein remaining % ≤80%)	B (80%< substrate protein remaining % ≤100%)	B (80%< substrate protein remaining % ≤100%)	B (80%< substrate protein remaining % ≤100%)
O=C1CCN(N2Cc3cc(CN4CCC(n5c(=O)[nH]c6cc(F)ccc65)CC4)ccc3C2=O)C(=O)N1 [GT-07579, 1-(5-((4-(5-fluoro-2-oxo-2,3-dihydro-1H-benzo[d]imidazol-1-yl)piperidin-1-yl)methyl)-1-oxoisoindolin-2-yl)dihydropyrimidine-2,4(1H,3H)-dione]	A (0% ≤ substrate protein remaining % ≤80%)	A (0% ≤ substrate protein remaining % ≤80%)	A (0% ≤ substrate protein remaining % ≤80%)	B (80%< substrate protein remaining % ≤100%)	B (80%< substrate protein remaining % ≤100%)	A (0% ≤ substrate protein remaining % ≤80%)
CC1(C)CCC(CN2C3CC2CN(Cc2ccc4c(c2)CN(N2CCC(=O)NC2=O)C4=O)C3)=C(c2ccc(Cl)cc2)C1 [GT-06458, 1-(5-((6-((4′-chloro-5,5-dimethyl-3,4,5,6-tetrahydro-[1,1′-biphenyl]-2-yl)methyl)-3,6-diazabicyclo[3.1.1]heptan-3-yl)methyl)-1-oxoisoindolin-2-yl)dihydropyrimidine-2,4(1H,3H)-dione]	A (0% ≤ substrate protein remaining % ≤80%)	A (0% ≤ substrate protein remaining % ≤80%)	A (0% ≤ substrate protein remaining % ≤80%)	A (0% ≤ substrate protein remaining % ≤80%)	A (0% ≤ substrate protein remaining % ≤80%)	A (0% ≤ substrate protein remaining % ≤80%)
O=C1CCN(N2C(=O)c3ccc(CN4CCC(c5ncnc6scc(-c7ccccc7)c56)CC4)cc3C2=O)C(=O)N1 [GT-08109, 2-(2,4-dioxotetrahydropyrimidin-1(2H)-yl)-5-((4-(5-phenylthieno[2,3-d]pyrimidin-4-yl)piperidin-1-yl)methyl)isoindoline-1,3-dione]	A (0% ≤ substrate protein remaining % ≤80%)	A (0% ≤ substrate protein remaining % ≤80%)	A (0% ≤ substrate protein remaining % ≤80%)	A (0% ≤ substrate protein remaining % ≤80%)	A (0% ≤ substrate protein remaining % ≤80%)	A (0% ≤ substrate protein remaining % ≤80%)
Cc1sc2ncnc(C3CCN(Cc4ccc5c(c4)CN(N4CCC(=O)NC4=O)C5=O)CC3)c2c1C [GT-08084, 1-(5-((4-(5,6-dimethylthieno[2,3-d]pyrimidin-4-yl)piperidin-1-yl)methyl)-1-oxoisoindolin-2-yl)dihydropyrimidine-2,4(1H,3H)-dione]	B (80%< substrate protein remaining % ≤100%)	B (80%< substrate protein remaining % ≤100%)	B (80%< substrate protein remaining % ≤100%)	B (80%< substrate protein remaining % ≤100%)	A (0% ≤ substrate protein remaining % ≤80%)	A (0% ≤ substrate protein remaining % ≤80%)
Cc1csc2ncnc(C3=CCN(Cc4ccc5c(c4)CN(N4CCC(=O)NC4=O)C5=O)CC3)c12 [GT-08117, 1-(5-((4-(5-methylthieno[2,3-d]pyrimidin-4-yl)-3,6-dihydropyridin-1(2H)-yl)methyl)-1-oxoisoindolin-2-yl)dihydropyrimidine-2,4(1H,3H)-dione]	B (80%< substrate protein remaining % ≤100%)	B (80%< substrate protein remaining % ≤100%)	B (80%< substrate protein remaining % ≤100%)	A (0% ≤ substrate protein remaining % ≤80%)	A (0% ≤ substrate protein remaining % ≤80%)	A (0% ≤ substrate protein remaining % ≤80%)
CC1CN(Cc2ccc3c(c2)C(=O)N(N2CCC(=O)NC2=O)C3=O)CC(C)N1C(c1ccccc1)c1ccccc1 (stereo not drawn) [GT-06430, 5-((4-benzhydryl-3,5-dimethylpiperazin-1-yl)methyl)-2-(2,4-dioxotetrahydropyrimidin-1(2H)-yl)isoindoline-1,3-dione]	A (0% ≤ substrate protein remaining % ≤80%)	A (0% ≤ substrate protein remaining % ≤80%)	B (80%< substrate protein remaining % ≤100%)	A (0% ≤ substrate protein remaining % ≤80%)	B (80%< substrate protein remaining % ≤100%)	A (0% ≤ substrate protein remaining % ≤80%)
O=C1CCN(N2Cc3cc(CN4CCN(c5ncncn5)CC4)ccc3C2=O)C(=O)N1 [GT-07031, 1-(5-((4-(1,3,5-triazin-2-yl)piperazin-1-yl)methyl)-1-oxoisoindolin-2-yl)dihydropyrimidine-2,4(1H,3H)-dione]	B (80%< substrate protein remaining % ≤100%)	A (0% ≤ substrate protein remaining % ≤80%)	B (80%< substrate protein remaining % ≤100%)	A (0% ≤ substrate protein remaining % ≤80%)	A (0% ≤ substrate protein remaining % ≤80%)	A (0% ≤ substrate protein remaining % ≤80%)
